Values quoted from earlier work in patent US6124256A, “Method for the prevention of a patient's fibroproliferative vasculopathy” (priority 1998, dated 2000).
pKi: −log10 of the molar value.

Experiments:
dysplastic lesions = details: arterial, venous and vascular transplant models, various animal species; results inconsistent between models
SSTR2 [1] = target: T1, SSTR2 (Homo sapiens, UniProt P30874)
Target sequence in this assay (P30874 whole entry, species assumed): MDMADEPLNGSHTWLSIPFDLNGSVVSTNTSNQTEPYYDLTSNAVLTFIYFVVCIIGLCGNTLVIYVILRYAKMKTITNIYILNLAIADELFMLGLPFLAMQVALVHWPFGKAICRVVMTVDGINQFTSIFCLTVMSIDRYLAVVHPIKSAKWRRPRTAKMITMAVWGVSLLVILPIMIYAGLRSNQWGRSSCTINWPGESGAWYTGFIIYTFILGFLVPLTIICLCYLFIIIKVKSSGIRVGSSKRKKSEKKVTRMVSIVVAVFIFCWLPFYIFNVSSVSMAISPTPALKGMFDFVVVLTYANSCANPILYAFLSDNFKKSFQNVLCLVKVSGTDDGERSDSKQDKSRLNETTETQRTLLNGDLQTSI

restenosis = details: randomized placebo controlled clinical trials; quantitated by angiography or as clinical events
hSSTR1 = target: T2, hSSTR1 (Homo sapiens, UniProt P30872); details: human receptor in transfected CHO cell lines; read-out: binding affinities Ki hSSTR1
T2 construct: expressed in transfected cells; host or cells: CHO
T2 sequence (P30872 whole entry): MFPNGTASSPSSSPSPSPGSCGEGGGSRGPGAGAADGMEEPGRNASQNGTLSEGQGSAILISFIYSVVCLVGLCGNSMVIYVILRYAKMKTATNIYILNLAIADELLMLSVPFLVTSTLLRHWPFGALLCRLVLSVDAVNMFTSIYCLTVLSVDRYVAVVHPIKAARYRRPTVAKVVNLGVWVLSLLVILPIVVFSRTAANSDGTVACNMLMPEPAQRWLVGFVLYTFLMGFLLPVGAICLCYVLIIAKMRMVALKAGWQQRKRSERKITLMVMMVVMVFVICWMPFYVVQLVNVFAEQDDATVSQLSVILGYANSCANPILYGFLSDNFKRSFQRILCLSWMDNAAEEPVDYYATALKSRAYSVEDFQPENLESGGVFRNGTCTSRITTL

hSSTR3 [2] = target: T3, hSSTR3 (Homo sapiens, UniProt P32745)
T3 sequence (P32745 whole entry): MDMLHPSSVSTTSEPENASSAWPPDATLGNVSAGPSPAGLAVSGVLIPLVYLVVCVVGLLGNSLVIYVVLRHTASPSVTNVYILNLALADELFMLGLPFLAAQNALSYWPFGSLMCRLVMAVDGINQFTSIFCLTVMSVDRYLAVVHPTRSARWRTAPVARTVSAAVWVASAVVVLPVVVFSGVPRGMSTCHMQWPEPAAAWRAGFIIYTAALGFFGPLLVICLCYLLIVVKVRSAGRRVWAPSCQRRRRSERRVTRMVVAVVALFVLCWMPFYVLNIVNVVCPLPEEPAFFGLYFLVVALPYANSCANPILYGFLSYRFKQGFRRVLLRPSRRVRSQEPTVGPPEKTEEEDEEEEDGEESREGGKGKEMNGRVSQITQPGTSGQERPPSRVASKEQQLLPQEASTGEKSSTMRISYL

[3] = tested on: SSTR3, the rodent receptor
hSSTR4 = target: T4, hSSTR4 (Homo sapiens, UniProt P31391); details: human receptor in transfected CHO cell lines; read-out: binding affinities Ki hSSTR4
T4 construct: expressed in transfected cells; host or cells: CHO
T4 sequence (P31391 whole entry): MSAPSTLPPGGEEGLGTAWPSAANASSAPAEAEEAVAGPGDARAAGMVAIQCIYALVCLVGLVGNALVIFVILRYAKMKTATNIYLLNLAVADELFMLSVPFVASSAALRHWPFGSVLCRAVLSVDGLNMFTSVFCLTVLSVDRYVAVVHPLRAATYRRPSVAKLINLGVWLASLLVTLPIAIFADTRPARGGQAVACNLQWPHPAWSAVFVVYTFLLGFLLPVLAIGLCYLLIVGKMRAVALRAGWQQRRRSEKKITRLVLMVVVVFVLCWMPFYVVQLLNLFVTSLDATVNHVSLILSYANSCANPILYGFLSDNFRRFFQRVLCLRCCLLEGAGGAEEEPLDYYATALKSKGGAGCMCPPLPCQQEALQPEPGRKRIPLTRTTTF

SSTR2 [4] = target: T1, SSTR2; parameters: expressed in transfected cells; host or cells: CHO; details: human receptor in transfected CHO cell lines; read-out: binding affinities Ki hSSTR2
Target sequence in this assay (P30874 whole entry): as the sequence (P30874 whole entry, species assumed) above

hSSTR3 [5] = target: T3, hSSTR3; parameters: expressed in transfected cells; host or cells: CHO; details: human receptor in transfected CHO cell lines; read-out: binding affinities Ki hSSTR3
hSTR5 = target: T5, hSTR5 (Homo sapiens, UniProt P35346); details: human receptor in transfected CHO cell lines; read-out: binding affinities Ki hSTR5
T5 construct: expressed in transfected cells; host or cells: CHO
T5 sequence (P35346 whole entry): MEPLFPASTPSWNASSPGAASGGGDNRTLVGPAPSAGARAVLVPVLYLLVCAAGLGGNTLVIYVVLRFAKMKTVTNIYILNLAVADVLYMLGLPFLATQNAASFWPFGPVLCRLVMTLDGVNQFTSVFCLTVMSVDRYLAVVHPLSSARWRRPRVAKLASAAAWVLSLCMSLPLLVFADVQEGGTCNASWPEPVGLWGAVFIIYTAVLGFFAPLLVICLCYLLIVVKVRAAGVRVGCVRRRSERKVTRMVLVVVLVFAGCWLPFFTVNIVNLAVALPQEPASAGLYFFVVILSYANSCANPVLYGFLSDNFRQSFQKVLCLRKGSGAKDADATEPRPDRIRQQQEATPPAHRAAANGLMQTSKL

Compound | formation of dysplastic lesions (dysplastic lesions) | affinity to SSTR2 (in words) (SSTR2 [1]) | prevention of restenosis after percutaneous transluminal angioplasty (restenosis) | pKi (hSSTR1) | binding to human SSTR3 (in words) (hSSTR3 [2]) | affinity for the rodent SSTR3 receptor (in words) [3] | pKi (hSSTR4) | pKi (SSTR2 [4]) | pKi (hSSTR3 [5]) | pKi (hSTR5)
CC(C)[C@@H]1NC(=O)[C@H](CCCCN)NC(=O)[C@@H](Cc2c[nH]c3ccccc23)NC(=O)[C@H](Cc2ccc(O)cc2)NC(=O)[C@@H](NC(=O)[C@H](N)Cc2ccc3ccccc3c2)CSSC[C@@H](C(=O)N[C@H](C(N)=O)[C@@H](C)O)NC1=O [Lanreotide, lanreotide] | prevents the formation of dysplastic lesions | high affinity | in some studies has been shown to prevent restenosis | < 6.00 | – | – | – | – | – | –
C[C@@H](O)[C@@H]1NC(=O)[C@H](CCCCN)NC(=O)[C@@H](Cc2c[nH]c3ccccc23)NC(=O)[C@H](Cc2ccccc2)NC(=O)[C@@H](NC(=O)[C@H](N)Cc2ccccc2)CSSC[C@@H](C(=O)N[C@H](CO)[C@@H](C)O)NC1=O [Octeoride, octreotide] | prevents the formation of dysplastic lesions | high affinity | the same therapeutic response has not been achieved | – | binds well | only moderate affinity | – | – | – | –
desAA^1.2.5 [D-Trp^6 -N-p-isopropyl-4-aminomethyl-L-phenylalanine]-SST14 [DADI-SST14] | – | – | – | 8.49 | – | – | 8.37 | < 6.00 | < 6.00 | < 6.00
